The AUC is concentration integrated over time. A low value points to less exposure.

This series in a line: Single-dose, dose escalation study Part 1: pharmacokinetics of plasma/urine cromolyn sodium (DSCG). The conditions noted are these: human, plasma, inhaled, 40 mg. The format is in vivo.

Procedure: This was a Phase 1, randomized, open-label, single-centre, dose-ranging, cross-over study conducted in two parts in total of 18 subjects. Part 1 was conducted in total of 12 healthy adult subjects of 18-45 years of age. Part 2 was conducted in a total of 5 adult patients of 18-45 years of age with systemic mastocytosis. Parts 1 and 2 were conducted in parallel.
40 mg PA-101 (4% DSCG, 40 mg/1 mL), oral inhalation via eFlow 30L. • 2. 80 mg PA-101 (4% DSCG, 80 mg/2 mL), oral inhalation via eFlow 30L. • 3. 40 mg PA-101 (4% DSCG, 40 mg/1 mL), oral inhalation via eFlow 40L. • 4. […] 200 mg oral sodium cromoglycate solution (commercially available product), oral administration. […] 40 mg PA-101 (4% DSCG 40 mg/1 mL), oral inhalation via eFlow 30L • 2. 200 mg oral sodium cromoglycate solution (commercially available product), oral administration. […]
Urine DSCG levels were measured for total DSCG excretion in the urine, and the bioavailability of the DSCG was calculated from the measured levels.
Pharmacokinetic parameters and plasma concentrations are listed and summarized. […] Analysis of variance (ANOVA) including terms for subject and treatment are used to calculate point estimates, and confidence intervals (CI) for treatment differences with respect to PK parameters (90% CI) are calculated.

As to `O=C(O)c1cc(=O)c2c(OCC(O)COc3cccc4oc(C(=O)O)cc(=O)c34)cccc2o1` [cromolyn sodium], the exposure (AUC) by setting is: (40 mg dose using the 30L device (text repeat of Table 2, PA-101)) 338 ng·h/mL; (40 mg dose using the 40L device (text repeat of Table 2, PA-101)) 212 ng·h/mL.
